7 molecules from US12533339B2, “Small molecule antiviral drug treatment for human papillomavirus infections” (THE TRUSTEES OF INDIANA UNIVERSITY, priority 2020, dated 2026) can be followed below.

Experiment [1] concerns the target T1, E6 WT/E6AP (Human papillomavirus type 16, UniProt P03126). Put plainly: biochemical. The experiment is classed as binding. To be noted: at 24 h; for IC50: 2 μM E6 WT pre-incubated with compound; for Emax: E6 WT, read-out: BLI maximal Inhibition (max %) E6 WT/E6AP.
Experiment [2] has as its target T1, E6 WT/E6AP. In words: biochemical. The experiment is classed as binding. The settings on record: WT 16E6; for inhibition at 10 µM: 10 μM compound; for inhibition at 100 µM: 100 μM compound.
The target of experiment [3] is E6C51S/E6AP (Human papillomavirus type 16, UniProt P03126, C58S). Put plainly: E6/E6AP binding assay (amylose-bound MBP-16E6, E6AP-BAP activity), C51S 16E6. The settings on record: for % Inhibition @ 10 μM E6C51S/E6AP: 10 μM compound; for % Inhibition @ 100 μM E6C51S/E6AP: 100 μM compound. Further details: species or system HPV-16.
Experiment [4] addresses T1, E6 WT/E6AP. Put plainly: biochemical. The experiment is classed as binding. The settings on record: for Emax: 24 h, read-out: FP maximal inhibition (max %) E6 WT/E6AP; for IC50: FP IC50 at 24 h (μM) E6 WT/E6AP.

Read-outs that look alike come from different tables or passages of the source.

T1 sequence (P03126 8-158): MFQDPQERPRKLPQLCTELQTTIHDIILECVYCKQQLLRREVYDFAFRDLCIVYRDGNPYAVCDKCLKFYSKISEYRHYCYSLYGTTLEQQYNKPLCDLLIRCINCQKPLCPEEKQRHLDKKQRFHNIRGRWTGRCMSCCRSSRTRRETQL
Sequence of E6C51S/E6AP (P03126 whole entry C58S, looked up): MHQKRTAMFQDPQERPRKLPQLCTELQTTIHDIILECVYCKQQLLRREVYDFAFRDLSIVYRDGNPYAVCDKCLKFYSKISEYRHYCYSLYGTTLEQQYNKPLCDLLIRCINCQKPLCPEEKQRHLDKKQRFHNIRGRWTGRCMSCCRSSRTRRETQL

By IC50 is commonly meant the concentration at which inhibition is half-maximal. One may read the inhibition as the percentage by which the read-out fell short of the control. The low end stands for a response near the control, the high end for a response far below the control. As to `C=CC(=O)N1CCN(c2nc(Cc3ccccc3)nc3sc4c(c23)CCCC4)CC1` [EIN-135, 1-(4-(2-benzyl-5,6,7,8-tetrahydrobenzo[4,5]thieno[2,3-d]pyrimidin-4-yl)piperazin-1-yl)prop-2-en-1-one], in experiment [1], the half-inhibitory concentration (IC50) was found to be 10.9 ± 3.4 µM and the Emax was 85%. Besides, in experiment [2], the inhibition at 10 µM worked out at 0% and the inhibition at 100 µM turned out to be 52 ± 5%. Also, in experiment [3], the “% Inhibition @ 10 μM E6C51S/E6AP” value is 12 ± 3% and the “% Inhibition @ 100 μM E6C51S/E6AP” value was 25 ± 4%. In addition, in experiment [4], the Emax stood at 27% and the IC50 was found to be 15.4 ± 0.4 µM.

Take `C=CC(=O)N1CCN(c2nc(CCc3cccc(F)c3)nc3sc4c(c23)CCCC4)CC1` [EIN-137, 1-(4-(2-(3-fluorophenethyl)-5,6,7,8-tetrahydrobenzo[4,5]thieno[2,3-d]pyrimidin-4-yl)piperazin-1-yl)prop-2-en-1-one]: in experiment [1], the IC50 was 4.9 ± 0.6 µM and the Emax worked out at 90%. Moreover, in experiment [2], the inhibition at 10 µM was 35 ± 4% and the inhibition at 100 µM amounted to 56 ± 4%. In experiment [3], the “% Inhibition @ 10 μM E6C51S/E6AP” value turned out to be 15 ± 3% and the “% Inhibition @ 100 μM E6C51S/E6AP” value is reported as 16 ± 5%.

With `C=CC(=O)N1CCN(c2nc(CCc3ccc(F)cc3)nc3sc4c(c23)CCCC4)CC1` [EIN-136, 1-(4-(2-(4-fluorophenethyl)-5,6,7,8-tetrahydrobenzo[4,5]thieno[2,3-d]pyrimidin-4-yl)piperazin-1-yl)prop-2-en-1-one], in experiment [1], the IC50 came to 2.7 ± 0.3 µM and the Emax was 100%. In experiment [2], 10 µM produced 41 ± 7% inhibition and the inhibition at 100 µM was 69 ± 2%. In experiment [4], the Emax was 55% and half-maximal inhibition (IC50) was put at 12 ± 0.9 µM.

In experiment [2], `C=CC(=O)N1CCN(c2nc(N(C)Cc3ccccc3)nc3sc4c(c23)CCCC4)CC1` [EIN-139, 1-(4-(2-(benzyl(methyl)amino)-5,6,7,8-tetrahydrobenzo[4,5]thieno[2,3-d]pyrimidin-4-yl)piperazin-1-yl)prop-2-en-1-one] registered an inhibition at 10 µM of 13 ± 7% and an inhibition at 100 µM of 21 ± 4%. In experiment [3], the “% Inhibition @ 10 μM E6C51S/E6AP” value is 0% and the “% Inhibition @ 100 μM E6C51S/E6AP” value was 6 ± 3%. Moreover, in experiment [4], the Emax turned out to be 8% and the IC50 was 33.1 ± 1.3 µM.

`COc1cccc(CCc2nc(N3CCN(C(=O)/C=C/CN(C)C)CC3)c3c4c(sc3n2)CCCC4)c1` [EIN-148, (E)-4-(dimethylamino)-1-(4-(2-(3-methoxyphenethyl)-5,6,7,8-tetrahydrobenzo[4,5]thieno[2,3-d]pyrimidin-4-yl)piperazin-1-yl)but-2-en-1-one]: in experiment [1], the IC50 is 3.3 ± 0.3 µM and the Emax came out at 100%. Moreover, in experiment [4], the Emax was 100% and half-maximal inhibition (IC50) required 20.4 ± 3 µM.

For the molecule `C=CC(=O)N1CCN(c2nc(-c3ccccc3)nc3sc4c(c23)CCCC4)CC1` [EIN-133, 1-(4-(2-phenyl-5,6,7,8-tetrahydrobenzo[4,5]thieno[2,3-d]pyrimidin-4-yl)piperazin-1-yl)prop-2-en-1-one], in experiment [1], the IC50 came out at 14.9 ± 6.6 µM and the Emax turned out to be 60%. Also, in experiment [2], the inhibition at 10 µM amounted to 26 ± 7% and the inhibition at 100 µM was found to be 41 ± 5%. Moreover, in experiment [3], the “% Inhibition @ 10 μM E6C51S/E6AP” value is reported as 0% and the “% Inhibition @ 100 μM E6C51S/E6AP” value came out at 0%. Further, in experiment [4], the Emax was determined as 9% and the midpoint of inhibition, the IC50, lay at 10.4 ± 0.7 µM.

Take `C=CC(=O)N1CCN(c2nc(CCc3ccccc3F)nc3sc4c(c23)CCCC4)CC1` [EIN-138, 1-(4-(2-(2-fluorophenethyl)-5,6,7,8-tetrahydrobenzo[4,5]thieno[2,3-d]pyrimidin-4-yl)piperazin-1-yl)prop-2-en-1-one]: in experiment [1], the half-inhibitory concentration (IC50) stood at 4.1 ± 0.5 µM and the Emax is 90%. Moreover, in experiment [2], 10 µM produced 20 ± 6% inhibition and testing at 100 µM gave an inhibition of 57 ± 3%. In experiment [3], the “% Inhibition @ 10 μM E6C51S/E6AP” value was found to be 16 ± 6% and the “% Inhibition @ 100 μM E6C51S/E6AP” value is reported as 19 ± 7%.
